Data from patent publication US20260237072A1, “FUNCTIONAL RESPIRATORY IMAGING ANALYSIS OF SERALUTINIB FOR THE TREATMENT OF PULMONARY ARTERIAL HYPERTENSION (PAH)” (GB002, INC., priority 2023, published 2026).
Several values for one entry are separate records, joined by “and”; a condition that tells them apart may be missing. Equal entries are not always repeated.

Columns and labels:
PAH patients [1] = assay: Clinical study: functional respiratory imaging (chest CT, automated pulmonary vascular segmentation) of pulmonary arterial blood vessel volume distribution; assay type: in vivo, human
Protocol: (§1) A clinical study was undertaken to examine the effect of Seralutinib on pulmonary arterial blood vessel volume distribution in PAH patients. Seralutinib was administered twice daily (BID) for 24 weeks, via dry powder inhalation, to PAH patients (WHO Group I, functional class II or III). Thin-section, volumetric non-contrast chest CTs were obtained (at baseline and week 24, minimum of 64 slices), followed by automated pulmonary vascular segmentation to evaluate the reverse remodeling potential of seralutinib.
From the scans, paired inspiratory-expiratory high-resolution non-contrast computer tomography studies were performed and the lobar tissue, airways and vasculature were reconstructed. Vasculature volumes are provided as a total blood volume (BV), and as BVX values, which divide the pulmonary blood volume depending on the size vessel in which the blood is contained, wherein:
Blood vessel volumes (BVV) of pulmonary arteries with a CSA<5 mm^2 (BV5A) and >10 mm^2 (BV10A) were calculated, and the BV5A to BV10A ratio (BV510ARATIO) was used to express relative redistribution of pulmonary arterial blood vessel volume. Linear regression was used to model the treatment effect.
(§2) Baseline and Week 24 CTs were obtained in 19 subjects (7 receiving seralutinib, 12 receiving placebo), mean age 49±12 years, 18 were female, as presented in Tables 1 and 2. All subjects were receiving two or three approved PAH-specific medications.
(§3) Case study 2 was of a person with WHO functional class II idiopathic PAH+severe rheumatoid arthritis receiving approved PAH Triple Therapy (ERA+PDE-5i+PRA).

PAH patients [2] = assay: Clinical study: change from baseline to week 24 in clinical parameters (PVR, MPAP, PAC, 6MWD, NTproBNP); assay type: in vivo, human; set-up: MPAP Change / 6MWD change / NTproBNP change: unit not given here
Protocol: as §1, §2, §3

[3] = Case Study 2, baseline to week 24, lung images
[4] = treatment effect vs placebo, week 24, linear regression
[5] = individual PAH patient, baseline to week 24, BID dry powder inhalation

SMILES: COc1ccc(-c2cncc(N[C@@H](C)c3cccc(NC(=O)c4cncc(C)c4)c3)n2)cc1OC [Seralutinib, N-{3-[(1S)-1-{[6-(3,4-dimethoxyphenyl)pyrazin-2-yl]amino}ethyl]phenyl}-5-methylpyridine-3-carboxamide]
- BV5A/BV10A ratio (PAH patients [1]; [3]): Increase
- Decrease in BV10APRA (PAH patients [1]; [3]): 8%
- Increase in BV5APRA (PAH patients [1]; [3]): 6%
- BV5A PRA (%)* (PAH patients [1]; Case Study 2, week 24): +5.6%
- BV10A PRA (%)* (PAH patients [1]; Case Study 2, week 24): −7.7%
- BV510A RATIO (PAH patients [1]; Case Study 2, week 24): +2.5
- redistribution of pulmonary arterial blood vessel volume to more distal vessels (PAH patients [1]; subjects with PAH on dual or triple PAH therapies, seralutinib added): significant redistribution
- BV5APRA regression model effect estimate (PAH patients [1]; [4]): 2.625
- BV5PR regression model effect estimate (PAH patients [1]; [4]): 1.835
- BV10APRA regression model effect estimate (PAH patients [1]; [4]): −2.711
- BV10PR regression model effect estimate (PAH patients [1]; [4]): −2.180
- BV510RATIO regression model effect estimate (PAH patients [1]; [4]): 0.843
- BV510ARATIO regression model effect estimate (PAH patients [1]; treatment effect vs placebo, week 24, linear regression, 7 seralutinib, 12 placebo): 0.845
- least squares mean difference value of the BV510ARatio (PAH patients [1]; vs placebo, 95% CI 0.105, 1.585, p-value 0.028): 0.845
- BV510A Ratio in the seralutinib group compared to placebo (PAH patients [1]; week 24, p=0.028): significantly higher
- PVR coincident with arterial volume shifts (PAH patients [2]; Case Study 2, baseline to week 24): Improvement
- 6MWD change (PAH patients [2]; Case Study 2, week 24): −48
- NTproBNP change (PAH patients [2]; Case Study 2, week 24): 41
- PVR Change (PAH patients [2]; Case Study 2, week 24, PVR baseline 408): −159
- MPAP Change (PAH patients [2]; [5]): −4 and −3 (2×) and −8 and 3 and −2
- PAC Change (pulmonary arterial compliance) (PAH patients [2]; [5]): 0.65 and 0.24 and 0.85 and 0.31 and 0.11 and 0.32
- PVR Change (PAH patients [2]; [5]): −159 and −11 and −52 and −235 and −139 and −171
